Results as given in US20240279190A1, “COMPOUNDS FOR MODULATING PLATELET-TYPE 12-(S)-LIPOXYGENASE AND METHODS OF USE FOR SAME” (The Regents of The University of California, priority 2021, published 2024).
pIC50: −log10 of the molar value.

Assays:
human islets = assay: Glucose stimulated insulin secretion (GSIS) of human islets treated with PIC; type: cell-based
Protocol: Human islets from nondiabetic donors were received from the Integrated Islet Distribution Program or Prodo Laboratories (Aliso Viejo, CA) (Table 1). Characteristics of islets and donors are summarized in the below table. Islets were incubated in CMRL-1066 medium supplemented with 10% fetal bovine serum and 1% Pen-Strept overnight at 37° C. in 5% CO2 for recovery from shipment. On the next day, islets were transferred to CMRL-1066 supplemented with 5% fetal bovine serum and 1% Pen-Strept. A portion of the islets were randomly selected and incubated with a mixture of human PICs, […] tumor necrosis factor α, […] interferon-γ, and […] IL-1β (all from BD Biosciences, San Jose, CA) in the presence or absence of 1 μmol/L compound LOX-12-001. Compound LOX-12-001 was added 30 minutes before the addition of pro-inflammatory cytokines (PIC).
Use of Krebs-Ringer buffer (KRB) for glucose-stimulated insulin secretion (GSIS) was previously published. For batch assays, islets treated with PIC in the presence or absence of compound LOX-12-001 (1 μM) for 24 hours were transferred to KRB without glucose and were incubated for 1 hour at 37° C. in 5% CO2 in the absence of PIC and compound LOX-12-001. Thereafter, 50 islet equivalents (IEQs) per well were transferred to six-well plates filled with 1 mL of KRB containing 3 mmol/L or 18 mmol/L of glucose and were incubated for 1 hour at 37° C. in 5% CO2. Each condition was performed in triplicate. After incubation, supernatant was collected for determination of insulin secretion by human insulin enzyme-linked immunosorbent assay (Mercodia, Winston-Salem, NC).
Data are presented as mean±standard error of the mean and were analyzed using Two-way Annova analysis of variance Sidak's multiple comparison test (Prism software, Irvine, CA) as indicated in each figure. P<0.05 was considered significant.

[1] = molecular target: T1, 12-LOX mutant A417I/V418M/S594T (Homo sapiens, UniProt P18054, A417I/S594T/V418M); assay: UV-Vis-based IC50 assay, A417I/V418M/S594T mutant; type: biochemical
T1 construct: 6xHis (N); made in house; pFastBac1 shuttle vector
T1 sequence (P18054 1-663 A417I/V418M/S594T): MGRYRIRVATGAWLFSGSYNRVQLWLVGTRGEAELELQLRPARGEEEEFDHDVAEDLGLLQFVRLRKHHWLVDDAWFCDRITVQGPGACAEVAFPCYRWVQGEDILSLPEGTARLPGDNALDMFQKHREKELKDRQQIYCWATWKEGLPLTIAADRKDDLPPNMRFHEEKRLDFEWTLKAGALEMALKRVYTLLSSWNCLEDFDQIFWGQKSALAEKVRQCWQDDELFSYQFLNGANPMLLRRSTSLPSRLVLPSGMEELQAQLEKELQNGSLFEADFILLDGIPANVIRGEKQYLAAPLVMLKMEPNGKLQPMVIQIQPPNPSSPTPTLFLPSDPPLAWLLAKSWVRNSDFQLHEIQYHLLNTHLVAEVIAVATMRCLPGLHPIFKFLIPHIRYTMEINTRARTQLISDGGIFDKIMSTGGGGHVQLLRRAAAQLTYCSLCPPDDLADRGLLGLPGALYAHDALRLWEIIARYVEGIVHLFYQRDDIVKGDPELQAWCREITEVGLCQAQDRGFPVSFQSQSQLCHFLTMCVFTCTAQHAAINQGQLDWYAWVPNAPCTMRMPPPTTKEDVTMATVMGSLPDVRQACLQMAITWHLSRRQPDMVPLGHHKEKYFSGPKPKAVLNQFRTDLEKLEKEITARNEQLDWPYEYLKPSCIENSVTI
Excerpt: Based on the ML355 binding mode predicted by the modeling, all residues within 5 Å of any atom of ML355 were selected for experimental mutagenesis. The selected residues were replaced with amino acids with either bulkier or smaller side chains in order to determine what specific interactions play a role in inhibitor binding. […] The numbering refers to the UniProt accession number P18054 sequence, with the N-terminal methionine assigned as amino acid number one. The primers for all mutants were designed using the online QuikChange Primer Design tool (http://www.genomics.agilent.com/primerDesignProgram.jsp) from Agilent Technologies (CA, USA). The mutations were introduced by using the QuikChange® II XL site-directed mutagenesis kit from Agilent, following the instructions in the protocol provided. […]
The wild type 12-LOX (wt-12-LOX) enzyme and its mutants were expressed as fusion proteins, with an N-terminal 6×His tag, and were affinity purified by nickel-iminodiacetic acid agarose using FPLC (Biorad).
The percent inhibition was determined by comparing the enzyme rates of the control (DMSO solvent) and the inhibitor sample by following the formation of the conjugated diene product at 234 nm (ε=25,000 M^−1cm^−1). […] The substrate concentration was quantitatively determined by allowing the enzymatic reaction to go to completion in the presence of soybean LOX-1. […]

COc1cccc(CNc2ccc(S(=O)(=O)Nc3nc4c(ccc5ccccc54)s3)cc2)c1O [Compound LOX-12-001, 4-((2-hydroxy-3-methoxybenzyl)amino)-N-(naphtho[1,2-d]thiazol-2-yl)benzenesulfonamide]
insulin secretion (human islets; 3 mmol/L glucose, PIC plus 1 μM compound for 24 hrs): 140+/−3 mU/L | insulin secretion (human islets; 3 mmol/L glucose, compound only (1 μM), no PIC): 25+/−5 mU/L | insulin secretion (human islets; 18 mmol/L glucose, PIC plus 1 μM compound for 24 hrs): 352+/−10 mU/L | insulin secretion (human islets; 18 mmol/L glucose, compound only (1 μM), no PIC): 128+/−13 mU/L | pIC50 [1]: < 4.70 | inhibition at 20 µM ([1]; 20 uM inhibitor, read-out: Percent inhibition at 20 uM inhibitor): 44%
